According to patent publication US10188108B2, “Fused bicyclic heterocycle derivatives as pesticides” (BAYER CROPSCIENCE AKTIENGESELLSCHAFT, priority 2015, dated 2019):
Like-named read-outs stand apart in the source and are kept apart here.

Assays:
[1] = tested on: Musca domestica; experiment: Musca domestica test; format: in vivo; conditions: after 2 days, adult houseflies
Procedure: • Solvent: dimethyl sulphoxide To produce a suitable preparation of active compound, 10 mg of active compound are mixed with 0.5 ml of dimethyl sulphoxide, and the concentrate is diluted with water to the desired concentration. Vessels containing a sponge treated with sugar solution and the active compound preparation of the desired concentration are populated with 10 adult houseflies (Musca domestica). After 2 days, the kill in % is determined. 100% means that all of the flies have been killed; 0% means that none of the flies have been killed.

[2] = tested on: Lucilia cuprina; experiment: Lucilia cuprina test; format: in vivo; conditions: 100 ppm, after 2 days, L1 larvae
Procedure: • Solvent: dimethyl sulphoxide To produce a suitable preparation of active compound, 10 mg of active compound are mixed with 0.5 ml of dimethyl sulphoxide, and the concentrate is diluted with water to the desired concentration. About 20 L1 larvae of the Australian sheep blowfly (Lucilia cuprina) are transferred into a test vessel containing minced horsemeat and the active compound preparation of the desired concentration. After 2 days, the kill in % is determined. 100% means that all the larvae have been killed; 0% means that no larvae have been killed.

[3] = tested on: Phaedon cochleariae; experiment: Phaedon cochleariae - spray test; format: in vivo; conditions: 500 g/ha, after 7 days, larvae on Chinese cabbage leaf discs
Procedure: (§1) • Solvent: 78.0 parts by weight of acetone • 1.5 parts by weight of dimethylformamide • Emulsifier: alkylaryl polyglycol ether
(§2) To produce a suitable preparation of active compound, 1 part by weight of active compound is dissolved using the stated parts by weight of solvent and made up with water containing an emulsifier concentration of 1000 ppm until the desired concentration is attained. To produce further test concentrations, the preparation is diluted with emulsifier-containing water.
After 7 days, the efficacy in % is determined. 100% means that all the beetle larvae have been killed; 0% means that no beetle larvae have been killed.

[4] = tested on: Ctenocephalides felis; experiment: Ctenocephalides felis - oral test; format: in vivo; conditions: 100 ppm in citrated cattle blood, after 2 days, adult cat fleas
Procedure: • Solvent: dimethyl sulphoxide To produce a suitable preparation of active compound, 10 mg of active compound are mixed with 0.5 ml of dimethyl sulphoxide. Dilution with citrated cattle blood gives the desired concentration. About 20 unfed adult cat fleas (Ctenocephalides felis) are placed into a chamber which is closed at the top and bottom with gauze. A metal cylinder whose bottom end is closed with parafilm is placed onto the chamber. The cylinder contains the blood/active compound preparation, which can be imbibed by the fleas through the parafilm membrane. After 2 days, the kill in % is determined. 100% means that all of the fleas have been killed; 0% means that none of the fleas have been killed.

[5] = tested on: Spodoptera frugiperda; experiment: Spodoptera frugiperda - spray test; format: in vivo; conditions: 500 g/ha, after 7 days, caterpillars on maize leaf discs
Procedure: as §1, §2
Leaf discs of maize (Zea mays) are sprayed with an active compound preparation of the desired concentration and, after drying, populated with caterpillars of the armyworm (Spodoptera frugiperda).
After 7 days, the efficacy in % is determined. 100% means that all the caterpillars have been killed; 0% means that no caterpillars have been killed.

[6] = tested on: Myzus persicae; experiment: Myzus persicae - spray test (Chinese cabbage leaf discs); format: in vivo; conditions: 500 g/ha, after 5-6 days
Procedure: • Solvent: 78 parts by weight of acetone • 1.5 parts by weight of dimethylformamide • Emulsifier: alkylaryl polyglycol ether
as §2
Discs of Chinese cabbage leaves (Brassica pekinensis) infested by all stages of the green peach aphid (Myzus persicae) are sprayed with an active compound preparation of the desired concentration.
After 5-6 days, the efficacy in % is determined. 100% means that all the aphids have been killed; 0% means that no aphids have been killed.

[7] = tested on: Ctenocephalides felis; experiment: Ctenocephalides felis - in vitro contact tests with adult cat fleas; format: in vivo; conditions: 5 μg/cm^2 (=500 g/ha), after 48 h, adult cat fleas dead or moribund
Procedure: For the coating of the test tubes, 9 mg of active compound are first dissolved in 1 ml of acetone p.a. and then diluted to the desired concentration with acetone p.a. 250 μl of the solution are distributed homogeneously on the inner walls and the base of a 25 ml test tube by turning and rocking on an orbital shaker (rocking rotation at 30 rpm for 2 h). With 900 ppm active compound solution and internal surface 44.7 cm^2, given homogeneous distribution, an area-based dose of 5 μg/cm^2 is achieved.
After the solvent has evaporated off, the tubes are populated with 5-10 adult cat fleas (Ctenocephalides felis), sealed with a perforated plastic lid and incubated in a horizontal position at room temperature and ambient humidity. After 48 h, efficacy is determined. To this end, the test tubes are stood upright and the fleas are knocked to the base of the tube. Fleas which remain motionless at the base or move in an uncoordinated manner are considered to be dead or moribund.
100% efficacy means that all the fleas were dead or moribund. 0% efficacy means that no fleas were harmed.

[8] = log P by HPLC on a reversed-phase column (C 18), EEC Directive 79/831 Annex V.A8; format: physicochemical; conditions: for LOGP_NEUTRAL: pH 7.8, 0.001 molar aqueous ammonium hydrogencarbonate/acetonitrile; for chromatographic logP: reversed-phase HPLC column (C 18)
Procedure: The log P values are measured according to EEC Directive 79/831 Annex V.A8 by HPLC (high-performance liquid chromatography) on a reversed-phase column (C 18). Temperature: 55° C.
The LC-MS determination in the acidic range is effected at pH 2.7 using 0.1% aqueous formic acid and acetonitrile (contains 0.1% formic acid) as eluents; linear gradient from 10% acetonitrile to 95% acetonitrile. Called log P (HCOOH) in the table.
LC-MS determination in the neutral range is effected at pH 7.8 with 0.001 molar aqueous ammonium hydrogencarbonate solution and acetonitrile as eluents; linear gradient from 10% acetonitrile to 95% acetonitrile. Called log P (neutral) in the table.
Calibration is carried out using unbranched alkan-2-ones (having 3 to 16 carbon atoms) with known log P values (log P values determined on the basis of the retention times by linear interpolation between two successive alkanones).

[9] = acidic range, pH 2.7, 0.1% aqueous formic acid/acetonitrile, 55° C.
[10] = neutral range, pH 7.8, value in preparation example text, read-out: log P (neutral)
[11] = acidic range, pH 2.7, 0.1% aqueous formic acid/acetonitrile, 55° C., read-out: LOGP_HCOOH

SMILES | LOGP_HCOOH [8, 9] | LOGP_NEUTRAL ([8]; neutral range, 55° C.) | chromatographic logP [8, 10] | chromatographic logP [8, 11] | efficacy (kill) ([1]; 4 ppm) | efficacy (kill) [2] | efficacy [3] | efficacy (kill) [4] | efficacy [5] | efficacy [6] | efficacy [7] | efficacy (kill) ([1]; 20 ppm)
CCSc1c(-c2nc3cc(C(F)(F)F)ncc3n2C)nc2ccccn12 [Example I-2, 2-(3-Ethylsulphanylimidazo[1,2-a]pyridin-2-yl)-3-methyl-6-(trifluoromethyl)imidazo[4,5-c]pyridine] | – | 2.75 | 2.75 | 2.84 | – | – | – | – | – | 90% | – | –
CCS(=O)(=O)c1c(-c2nc3cc(C(F)(F)F)ncc3n2C)nc2ccc(Cl)cn12 [Example I-4] | 2.67 | 2.61 | – | – | 80% | 100% | – | 90% | 100% | 90% | 100% | –
CCS(=O)(=O)c1c(-c2nc3cc(C(F)(F)F)ncc3n2C)nc2ccc(C(F)(F)F)cn12 [Example I-6] | 3.09 | 3.06 | – | – | – | 100% | 100% | 100% | 100% | 90% | 100% | 90%
CC[S+]([O-])c1c(-c2nc3cc(C(F)(F)F)ncc3n2C)nc2ccc(Cl)cn12 (centres unmarked) [Example I-7] | 2.93 | 2.83 | – | – | – | – | – | – | 100% | 90% | – | –
CC[S+]([O-])c1c(-c2nc3cc(C(F)(F)F)ccc3n2C)nc2ccccn12 (centres unmarked) [Example I-11] | 2.92 | 2.85 | – | – | – | – | 100% | – | 100% | 90% | – | –
CCS(=O)(=O)c1c(-c2nc3cc(C(F)(F)F)ncc3n2C)nc2c(Cl)cccn12 [Example I-19] | 2.56 | 2.50 | – | – | – | – | 100% | – | 100% | 90% | – | –
CCS(=O)(=O)c1c(-c2nc3cc(C(F)(F)F)ncc3n2C)nc2cccc(C(F)(F)F)n12 [Example I-21] | 2.69 | 2.66 | – | – | – | – | 100% | – | 100% | 100% | – | –
CC[S+]([O-])c1c(-c2nc3cc(C(F)(F)F)ncc3n2C)nc2cccc(C(F)(F)F)n12 (centres unmarked) [Example I-22] | 2.30 | 2.30 | – | – | – | – | 100% | – | – | 90% | – | –
CCS(=O)(=O)c1c(-c2nc3cc(C(F)(F)F)ccc3n2C)nc2cc(C(F)(F)F)ccn12 [Example I-34] | 3.72 | – | – | – | – | – | 100% | – | 100% | – | 100% | –
CCS(=O)(=O)c1c(-c2nc3cc(C(F)(F)F)ccc3n2C)nc2cccc(C)n12 [Example I-46] | 2.73 | – | – | – | – | – | 83% | – | – | 90% | – | –
CCS(=O)(=O)c1c(-c2nc3cc(C(F)(F)F)ncc3n2C)nc2ccc(C)cn12 [Example I-48] | 2.43 | 2.36 | – | – | – | – | – | – | 100% | 90% | – | –
CCS(=O)(=O)c1c(-c2nc3cc(C(F)(F)F)ncc3n2C)nc2ccc(OC)cn12 [Example I-54] | 2.41 | 2.37 | – | – | – | – | – | – | 100% | 90% | – | –

Second part, led by results:

LOGP_HCOOH [8, 9] | LOGP_NEUTRAL ([8]; neutral range, 55° C.) | chromatographic logP [8, 10] | chromatographic logP [8, 11] | SMILES | efficacy (kill) ([1]; 4 ppm) | efficacy (kill) [2] | efficacy [3] | efficacy (kill) [4] | efficacy [5] | efficacy [6] | efficacy [7] | efficacy (kill) ([1]; 20 ppm)
2.08 | 2.05 | 2.07 | – | CCS(=O)(=O)c1c(-c2nc3cc(C(F)(F)F)ncc3n2C)nc2ccccn12 [Example I-1, 2-(3-Ethylsulphonylimidazo[1,2-a]pyridin-2-yl)-3-methyl-6-(trifluoromethyl)imidazo[4,5-c]pyridine] | 85% | 100% | 83% | 98% | 100% | 90% | 100% | –
3.00 | 2.98 | – | – | CCS(=O)(=O)c1c(-c2nc3cc(C(F)(F)F)ncc3n2C)nc2cc(C(F)(F)F)ccn12 [Example I-17] | 80% | 100% | 100% | 100% | 100% | 100% | 100% | –
2.66 | 2.64 | – | – | CCS(=O)(=O)c1c(-c2nc3cc(C(F)(F)F)ncc3n2C)nc2cc(Cl)ccn12 [Example I-23] | – | – | 100% | – | 100% | – | 100% | –
3.01 | – | – | – | CCS(=O)(=O)c1c(-c2nc3cc(C(F)(F)F)ccc3n2C)nc2cc(C)ccn12 [Example I-33] | – | – | – | – | 83% | – | 100% | –
– | 2.62 | 2.62 | 2.59 | CCS(=O)(=O)c1c(-c2nc3cc4c(cc3n2C)OC(F)(F)O4)nc2ccccn12 [Example I-41, 6-[3-(Ethylsulphonyl)imidazo[1,2-a]pyridin-2-yl]-2,2-difluoro-5-methyl-5H-[1,3]dioxolo[4,5-f]benzimidazole] | – | – | 100% | – | 83% | 90% | – | –
2.53 | 2.52 | 2.52 | – | CCS(=O)(=O)c1c(-c2nc3cc(C(F)(F)F)cnc3o2)nc2ccccn12 [Example I-44, 2-[3-(Ethylsulphonyl)imidazo[1,2-a]pyridin-2-yl]-6-(trifluoromethyl) [1,3]oxazolo[5,4-b]pyridine] | – | – | 100% | – | 83% | – | – | –
3.51 | – | – | – | CCS(=O)(=O)c1c(-c2nc3cc(C(F)(F)F)cnc3o2)nc2ccc(C(F)(F)F)cn12 [Example I-47] | – | – | 100% | – | 83% | – | – | –
3.53 | – | – | – | CCS(=O)(=O)c1c(-c2nc3cc(C(F)(F)F)cnc3o2)nc2cc(C(F)(F)F)ccn12 [Example I-49] | – | – | 100% | – | 100% | – | – | –
4.14 | – | – | – | CCSc1c(-c2nc3cc(C(F)(F)F)cnc3o2)nc2cc(C(F)(F)F)ccn12 [Example I-50] | – | – | 100% | – | 100% | – | – | –
2.84 | 2.78 | – | – | CCS(=O)(=O)c1c(-c2nc3cc(C(F)(F)F)cnc3n2C)nc2ccc(C)cn12 [Example I-53] | – | – | – | – | 100% | 100% | – | –
